Assay results from patent US3941882A, “Rodenticidal imidazo-pyridines” (priority 1974, dated 1976).
Entries after “also recorded” stand apart in the source; their conditions may differ.

What was measured:
rats (Rattus norvegicus) = assay: Rodenticidal effect in rats fed treated diet (Table I); format: in vivo, Spraque-Dawley albino strain, male; conditions: per rat
Source text: A quantity of a standard animal feed of the following composition: Ingredients Percent Lbs./Ton ______________________________________ Corn, Yellow, Ground 42.275 845.5 Oats, Ground 10.0 200.0 Wheat Middlings 10.0 200.0 Soybean Oil Meal, Solvent Extracted Dehulled, 50 % 18.0 360.0 Skimmed Milk, Dried 5.0 100.0 Corn, Distillers Dried Solubles 2.5 50.0 Alfalfa Meal, Dehydrated, 17 % 2.5 50.0 Whey, Whole Dried 1.0 20.0 Fish Meal with Solubles 4.0 80.0 Animal Fat, Beef Tallow 2.0 40.0 Dicalcium Phosphate, Feed Grade 0.5 10.0 Calcium Carbonate 1.0 20.0 Salt 0.3 6.0 Trace Mineral Premix AN-03 0.2 4.0 Vitamin Premix CK-1 0.5 10.0 Vitamin E Premix 0.1 2.0 Methionine Hydroxy Analog (HYDAN) 0.125 2.5 Total 100.00 2000.0 ______________________________________
was divided into two portions. To each portion, there was added an amount of 1-methoxy-6-chloro-2-heptafluoro-n-propyl-1H-imidazo(4,5-b)pyridine, so that one portion contained 800 ppm of the compound, and the other portion contained 200 ppm of the compound.
Other modified feeds were prepared as described above but containing, in lieu of the compound identified above, 1-methoxy-6-bromo-2-heptafluoro-n-propyl-1H-imidazo(4,5-b)pyridine, 6-chloro-2-pentafluoroethyl-1H-imidazo(4,5-)pyridine, or 1-methoxy-6-chloro-2-heptafluoroisopropyl-1H-imidazo(4,5-b)pyridine, in the same or other concentrations,
EXAMPLES 2-28 Representative compounds were evaluated for rodenticidal effect in rats (Rattus norvegicus, Spraque-Dawley albino strain, male, each weighing 50-60 grams). Each compound to be evaluated was formulated as described in Example 1. Control rats were maintained on the standard animal feed described in Example 1. Control rats and rats to be treated were randomly assigned. Each group contained 5 or 6 rats. Feeding of the respective diet was ad libitum. Consumption per rat per day was checked, except on weekend days, and the rats were weighed and usually necropsied at death or termination of the experiment (generally, day 10).
In the evaluation of several of the compounds, the rats were observed closely to determine the day of death. Death occurred on the day marked by "X"; where no "X" is marked, the rat was found dead on the morning following the last indicated feeding. For the remaining compounds, no such close observation was made, and the rat was found dead on the morning following the last indicated feeding. Generally, the rats were not observed or feed consumption determined on weekend days.

[1] = tested on: whole blood clotting time; assay: Prolongation of whole blood clotting time in female rats (Table II); format: in vivo, Rattus norvegicus, Sprague-Dawley strain; conditions: 0.06 % in diet
Protocol: 1-Hydroxy-6-chloro-2-pentafluoroethyl-1H-imidazo(4,5-b)-pyridine was evaluated for prolongation of clotting time. The experiment was conducted in female rats (Rattus norvegicus, Sprague-Dawley strain) using a standard laboratory diet. A group of four control rats was fed the unmodified diet and another group of four rats was fed a treated diet, the standard laboratory diet modified by the incorporation therein of 0.06 percent of the 1-hydroxy-6-chloro-2-pentafluoroethyl-1H-imidazo(4,5-b)pyridine.
On the sixth day of feeding, a blood sample was taken from each rat and was analyzed for whole blood clotting time. The analysis was carried out on a BBL Fibrometer Precision Coagulation Timer, produced by BBL Fibrometer, a Division of Becton, Dickinson and Co., Canada, Ltd.; at Mississauga, Ontario. Two analyses were made of each sample.

[2] = tested on: rat population (Rattus norwegius); assay: Field trial against a rat population; format: in vivo; conditions: 100 ppm in feed
Protocol: A field trial was conducted to evaluate the efficacy of 1-methoxy-5,6-dichloro-2-heptafluoro-n-propyl-1H-imidazo(4,5-b)-pyridine. The trial was conducted in an area of waste ground covered by grass and brush and recently cut off, by construction activity, from a nearby abandoned stockyard. The trial area indicated the presence of a rat population; this was confirmed by supplying to the area a conventional pelleted hog feed. It was consumed steadily at the rate of 8 lbs./day, corresponding to a population of about 145 rats consuming an average of 25 g. of feed/day. After the conventional feed had been supplied for three weeks, the trial period began. The rat species was believed to be Rattus norwegius, and this was later confirmed upon recovery of the dead animals.
During the trial period, the conventional feed was replaced by an adequate supply of a modified feed, which was identical to the conventional feed except that it contained 100 ppm (0.01 percent) of 1-methoxy-5,6-dichloro-2-heptafluoro-n-propyl-1H-imidazo(4,5-b)pyridine.
Food consumption was estimated visually and was as follows, counting the initiation of the trial period as the first day: […]

prothrombin time = assay: Prothrombin time in male rats (Tables III and IV); format: in vivo, rats (Harlan albino strain); conditions: group of 5 rats; for Deaths / Range of Prothrombin Time: five days
Protocol: Representative compounds were evaluated for prothrombin time in standard laboratory male rats (Harlan albino strain) of weanling age. A standard laboratory animal diet was fed to one group of 5 rats to serve as a control; other groups of 5 rats received modified diets, each diet being the standard laboratory animal diet modified by the incorporation therein of 0.08 percent of the respective compound. Feeding was continued for five days, at which time a blood sample was taken from each rat and analyzed for prothrombin time. The analytical method was that of A. J. Quick, "The Determination of Prothrombin," 190 Am. J. Med. Sci. 501 (1935): and it was performed on the "Electra 600", a machine available from the Medical Laboratory Automation, Inc. The results are reported in Table III.
Additional evaluations of the effect of representative compounds of prothrombin time were conducted. The procedures were the same as those reported in Examples 30-33 except that the concentration of the respective compound was 0.02 percent.

## COCOn1c(C(F)(F)F)nc2ncc(Cl)cc21 [1-(methoxymethoxy)-6-chloro-2-trifluoromethyl-1H-imidazo(4,5-b)pyridine]
Rats (Rattus norvegicus); 700 ppm in diet
  Weight change: +13 grams

## C=CCOn1c(C(F)(F)C(F)F)nc2nc(Cl)c(Cl)cc21 [1-allyloxy-5,6-dichloro-2-(1,1,2,2-tetrafluoroethyl)-1H-imidazo(4,5-b)pyridine]
Rats (Rattus norvegicus); 100 ppm in diet
  Weight change: 0 grams

## O=C(C=Cc1ccccc1)On1c(C(F)(F)F)nc2ncc(Cl)cc21 [1-cinnamoyloxy-6-chloro-2-trifluoromethyl-1H-imidazo(4,5-b)pyridine]
Rats (Rattus norvegicus); 1000 ppm in diet
  Necropsy results: SH, IH

## On1c(C(F)(F)C(F)(F)F)nc2ncc(Cl)cc21 [1-hydroxy-6-chloro-2-pentafluoroethyl-1H-imidazo(4,5-b)pyridine]
[1]; per animal
  Death during clotting time study: died on day 5; also recorded: died on day 6
[1]; sixth day of feeding, two analyses per sample
  Whole Blood Clotting Time: > 600 s

## CC(C)On1c(C(F)(F)F)nc2nc(Cl)c(Cl)cc21 [1-isopropoxy-5,6-dichloro-2-trifluoromethyl-1H-imidazo(4,5-b)pyridine]
Rats (Rattus norvegicus); 200 ppm in diet
  Weight change: 0 grams

## COn1c(C(F)(F)C(F)(F)C(F)(F)F)nc2nc(Cl)c(Cl)cc21 [1-methoxy-5,6-dichloro-2-heptafluoro-n-propyl-1H-imidazo(4,5-b)pyridine]
[2]
  Bait shyness: no bait shyness
  Eradication of rodents from the trial area: essentially complete eradication of rodents from the trial area
  First day rat corpses were found: 4 days
[2]; 31 of 40 corpses necropsied
  Necropsy of corpses: uniformly showed internal hemorrhage, generally of the intestines
[2]; total
  Corpses found: 40 corpses

## COn1c(C(F)(F)F)nc2nc(Cl)c(Cl)cc21 [1-methoxy-5,6-dichloro-2-trifluoromethyl-1H-imidazo(4,5-b)pyridine]
Rats (Rattus norvegicus); 200 ppm in diet
  Weight change: -12 grams

## COn1c(C(F)(F)F)nc2nc(Cl)ccc21 [1-methoxy-5-chloro-2-trifluoromethyl-1H-imidazo(4,5-b)pyridine]
Rats (Rattus norvegicus); 800 ppm in diet
  Weight change: -11 grams

## COn1c(C(F)(F)C(F)(F)C(F)(F)F)nc2ncc(Br)cc21 [1-methoxy-6-bromo-2-heptafluoro-n-propyl-1H-imidazo(4,5-b)pyridine]
Rats (Rattus norvegicus); 200 ppm in diet
  Necropsy results: LH, IH

## COn1c(C(F)(F)C(F)(F)C(F)(F)F)nc2ncc(Cl)cc21 [1-methoxy-6-chloro-2-heptafluoro-n-propyl-1H-imidazo(4,5-b)pyridine]
Rats (Rattus norvegicus); 200 ppm in diet
  Necropsy results (in words): bloody nose
Rats (Rattus norvegicus); 800 ppm in diet
  Necropsy results (in words): bloody nose

## COn1c(C(F)(C(F)(F)F)C(F)(F)F)nc2ncc(Cl)cc21 [1-methoxy-6-chloro-2-heptafluoroisopropyl-1H-imidazo(4,5-b)pyridine]
Rats (Rattus norvegicus); 200 ppm in diet
  Necropsy results: TH, SH
Rats (Rattus norvegicus); 300 ppm in diet
  Necropsy results: AH, TH, SH; also recorded: TH, Test.H

## COn1c(C(F)(F)C(F)(F)F)nc2ncc(Cl)cc21 [1-methoxy-6-chloro-2-pentafluoroethyl-1H-imidazo(4,5-b)pyridine]
Prothrombin time; 0.02 percent in diet
  Deaths: none
  Range of Prothrombin Time: 53.1 to 90.5 s
Prothrombin time; 0.08 percent in diet
  Deaths: 3
  Range of Prothrombin Time: 180 to 200 s
  Day(s) of deaths: 170000 to 350000 s

## CNC(=O)On1c(C(F)(F)F)nc2ncc(Cl)cc21 [1-methylcarbamoyloxy-6-chloro-2-trifluoromethyl-1H-imidazo(4,5-b)pyridine]
Prothrombin time; 0.02 percent in diet
  Deaths: none
  Range of Prothrombin Time: 17.6 to 22.1 s
Prothrombin time; 0.08 percent in diet
  Deaths: none
  Range of Prothrombin Time: 39.6 to 98.6 s

## CC(C)(C)C(=O)On1c(C(F)(F)F)nc2ncc(Cl)cc21 [1-pivaloyloxy-6-chloro-2-trifluoromethyl-1H-imidazo(4,5-b)pyridine]
Rats (Rattus norvegicus); 750 ppm in diet
  Necropsy results: TH, IH; also recorded: NH, IH
Rats (Rattus norvegicus); 1500 ppm in diet
  Necropsy results: NH, IH

## FC(F)(F)c1nc2nc(Cl)c(Cl)cc2[nH]1 [5,6-dichloro-2-trifluoromethyl-1H-imidazo(4,5-b)pyridine]
Rats (Rattus norvegicus); 50 ppm in diet
  Weight change: +13 grams

## FC(F)C(F)(F)c1nc2ncc(Cl)cc2[nH]1 [6-chloro-2-(1,1,2,2-tetrafluoroethyl)-1H-imidazo(4,5-b)pyridine]
Rats (Rattus norvegicus); 150 ppm in diet
  Necropsy results: TH, SIH; also recorded: NH, IH

## FC(F)(F)c1nc2ncc(Cl)cc2[nH]1 [6-chloro-2-trifluoromethyl-1H-imidazo(4,5-b)pyridine]
Prothrombin time; 0.02 percent in diet
  Deaths: none
Prothrombin time; 0.08 percent in diet
  Deaths: 5
  Day(s) of deaths: three
